Measured values taken from patent US20100234238A1, “METHOD FOR PROFILING KINASE INHIBITORS” (Janssen Pharmaceutica N V, priority 2006, published 2010).

System: tyrosine kinase activity in xenograft tumor lysates
Experiment: PAMCHIP96 (140-peptide array) profiling of xenograft tumor lysates in absence or presence of MTKI
Assay type: biochemical
Conditions: 5 μM
Description: 100 mg of frozen tumor or tissue blocks, or sections, are lysed in 1 ml of M-PER buffer (PIERCE) containing phosphatase and protease inhibitors (HALT, PIERCE). The suspension is mixed using a ULTRA-TURRAX blender (IKA werke), and centrifuged twice for 10 minutes at 12 000×g. Supernatant lysates are filtered through a 0.2 micrometer filter (Anotop 0.2 μm anopore filter; Whatmann). Lysates are flash frozen in liquid nitrogen and stored at −80C.
Just prior to the PAMCHIP experiment, total protein content is quantitated in the lysates and lysates are diluted to 1 mg/ml in a total volume of 200 μl, with M-PER phosphatase and protease inhibitors (HALT, PIERCE). 10 μg of total lysate (corresponding to 10 μl) will be used per well on the PAMCHIP96.
To all 200 μl lysates 10 units of benzonase (Novagen) is added and lysates are further incubated for 30 min on ice and next centrifuged for 10 minutes at 12 000×g. The supernatant is then 1:1 diluted with compound or DMSO diluted to the appropriate concentration in water, and lysates are further incubated exactly 60 min on ice. Meanwhile, a PAMCHIP96 tyrosine peptide chip (PAMGENE) is blocked with 2% BSA (filtered through a 0.2 μm anopore filter; Whatmann) using the standard setting of a PAMSTATION96 (PAMGENE).
The composition of the kinase buffer is as follows: 1×ABL buffer (NEB), 0.5 mg/ml BSA (from 10 mg/ml NEB stock), 100 μM ATP (dissolved and diluted in 1×ABL buffer), 5 μg/ml PY20-FITC (ExAlpha Biologicals, azide-free preparation). A twofold concentrated kinase buffer is prepared chilled on ice, DMSO or compound is added as appropriate, and the solution is added 1:1 to the (compound treated) ice cold lysates, and immediately applied to a tyrosine peptide PAMCHIP96. The assay is run on a PAMSTATION96 according to standard procedures: after loading of the plate, solution is pumped once onto the wells, a first exposure is read (150 mSec) and then a kinetic reading program (reading every 5 min for 150 mSec) is run for 60 min. Lysates are run in 6 technical replicates for each condition; replicates are always applied horizontally next to each other to avoid vertical strip effects of the chip.
The data (spot images) are further quantified and linked to the peptide identities using EVOLVE PAMGRID software (PAMGENE). The quantified data are then fit to a curve using CurveFitHT software (PAMGENE) using the Vinip2 curve fitting algorithm, applied on the first 30 min of the assay; the initial velocity is derived at the first kinetic time point read. All subsequent data analyses were done on initial velocities (Vini) using the software packages Omniviz and R (Ihaka, R. and Gentlemen, R. (1996) R: a language for data analysis and graphics. J. Comput. Graph. Stat., 5, 299-314).
After replacing the Vini's lower than 0.1 by 0.1, all Vini's were log 2-transformed to approach normality. […] This test was done for each peptide separately using a mixed model (Littell, R. C., Milliken, G. A., Stroup, W. W., Wolfinger, R. D. 1996. SAS system for mixed models. Cary, N. C.: SAS Institute Inc.) allowing the incorporation of both technical variation (i.e., the variation across replicates) and biological variation (i.e., the variation among the various responding and non-responding cell lines or tumors). Variation between cell lines or tumors in Vini and in treatment effect on Vini was modeled respectively by random intercepts and random compound effects per cell line or tumor, nested in response status. The difference in compound-induced reduction in Vini between responding and non-responding cell lines or tumors was tested through the interaction between compound treatment and response status, both modeled as fixed effects.

With `COc1cc2ncnc3c2cc1OCCCCCN(C)Cc1ccc(Br)cc1N3` [MTKI, 4,6-ethanediylidenepyrimido[4,5-b][6,1,12]benzoxadiazacyclopentadecine, 17-bromo-8,9,10,11,12,13,14,19-octahydro-20-methoxy-13-methyl-] the “ratio of initial velocity of peptide phosphorylation” value (shortened to “ratio”) (A431 xenograft tumor lysate, CDK7_157_169_S164) was 0.60, the “ratio” value (A431 xenograft tumor lysate, EPHB1_921_933_Y928) was 0.39 and the “ratio” value (A431 xenograft tumor lysate, FAK1_569_581_Y576/Y577) was 0.58. For the same compound, the “ratio” value (A431 xenograft tumor lysate, GSK3B_209_221_Y216) was 0.67, the “ratio” value (A431 xenograft tumor lysate, K2C6E_53_65_S59) was 0.54 and the “ratio” value (A431 xenograft tumor lysate, MBP_259_271_Y261/Y268/S266) was 0.60. For the same compound, the “ratio” value (A431 xenograft tumor lysate, MK10_216_228_T221/Y223) was 0.60, the “ratio” value (A431 xenograft tumor lysate, NCF1_313_325_S315/S320) was 0.66 and the “ratio” value (A431 xenograft tumor lysate, NTRK2_699_711_Y702/Y706/Y707) was 0.46. For the same compound, the “ratio” value (A431 xenograft tumor lysate, P2AB_297_309_T304/Y307) was 0.65, the “ratio” value (A431 xenograft tumor lysate, PGFRB_572_584_Y579/Y581) was 0.64 and the “ratio” value (A431 xenograft tumor lysate, RAF1_331_343_S337/S338/Y339/Y340) was 0.58. The “ratio” value (A431 xenograft tumor lysate, RB_804_816_S807/S811) was 0.53, the “ratio” value (A431 xenograft tumor lysate, SYN1_2_14_S9) was 0.76 and the “ratio” value (A431 xenograft tumor lysate, TYRO3_679_691_Y686) was 0.55. For the same compound, the “ratio” value (A431 xenograft tumor lysate, VEGFR2_944_956_Y951) was 0.58, the “ratio” value (A431 xenograft tumor lysate, VINC_815_827_Y821) was 0.52 and the “ratio” value (BT474 xenograft tumor lysate, EPHB1_921_933_Y928) was 0.70. The “ratio” value (BT474 xenograft tumor lysate, FAK1_569_581_Y576/Y577) was 0.89, the “ratio” value (BT474 xenograft tumor lysate, GSK3B_209_221_Y216) was 0.89 and the “ratio” value (BT474 xenograft tumor lysate, K2C6E_53_65_S59) was 0.80. For the same compound, the “ratio” value (BT474 xenograft tumor lysate, MBP_259_271_Y261/Y268/S266) was 0.85, the “ratio” value (BT474 xenograft tumor lysate, MK10_216_228_T221/Y223) was 0.83 and the “ratio” value (BT474 xenograft tumor lysate, NCF1_313_325_S315/S320) was 1.02. For the same compound, the “ratio” value (BT474 xenograft tumor lysate, NTRK2_699_711_Y702/Y706/Y707) was 0.77, the “ratio” value (BT474 xenograft tumor lysate, P2AB_297_309_T304/Y307) was 0.62 and the “ratio” value (BT474 xenograft tumor lysate, PGFRB_572_584_Y579/Y581) was 0.75. For the same compound, the “ratio” value (BT474 xenograft tumor lysate, RAF1_331_343_S337/S338/Y339/Y340) was 0.94, the “ratio” value (BT474 xenograft tumor lysate, RB_804_816_S807/S811) was 0.80 and the “ratio” value (BT474 xenograft tumor lysate, SYN1_2_14_S9) was 0.96. The “ratio” value (BT474 xenograft tumor lysate, TYRO3_679_691_Y686) was 0.84, the “ratio” value (BT474 xenograft tumor lysate, VEGFR2_944_956_Y951) was 0.84 and the “ratio” value (BT474 xenograft tumor lysate, VINC_815_827_Y821) was 0.85. For the same compound, the “ratio” value (DU145 xenograft tumor lysate, CDK7_157_169_S164) was 0.96, the “ratio” value (DU145 xenograft tumor lysate, EPHB1_921_933_Y928) was 0.81 and the “ratio” value (DU145 xenograft tumor lysate, FAK1_569_581_Y576/Y577) was 0.72. For the same compound, the “ratio” value (DU145 xenograft tumor lysate, GSK3B_209_221_Y216) was 1.07, the “ratio” value (DU145 xenograft tumor lysate, K2C6E_53_65_S59) was 0.77 and the “ratio” value (DU145 xenograft tumor lysate, MBP_259_271_Y261/Y268/S266) was 0.81. For the same compound, the “ratio” value (DU145 xenograft tumor lysate, MK10_216_228_T221/Y223) was 0.77, the “ratio” value (DU145 xenograft tumor lysate, NCF1_313_325_S315/S320) was 0.97 and the “ratio” value (DU145 xenograft tumor lysate, NTRK2_699_711_Y702/Y706/Y707) was 0.77. For the same compound, the “ratio” value (DU145 xenograft tumor lysate, P2AB_297_309_T304/Y307) was 0.81, the “ratio” value (DU145 xenograft tumor lysate, PGFRB_572_584_Y579/Y581) was 0.72 and the “ratio” value (DU145 xenograft tumor lysate, RAF1_331_343_S337/S338/Y339/Y340) was 0.83. The “ratio” value (DU145 xenograft tumor lysate, RB_804_816_S807/S811) was 0.76, the “ratio” value (DU145 xenograft tumor lysate, SYN1_2_14_S9) was 0.88 and the “ratio” value (DU145 xenograft tumor lysate, TYRO3_679_691_Y686) was 0.83. The “ratio” value (DU145 xenograft tumor lysate, VEGFR2_944_956_Y951) was 0.95 and the “ratio” value (DU145 xenograft tumor lysate, VINC_815_827_Y821) was 0.84.
